Assay [1] addresses BTK (phospho-BTK) in human whole blood (Homo sapiens, UniProt Q06187). Nature of the assay: In vitro PD assay in human whole blood (pBTK assay).
The target in another assay is T1, BTK enzyme (Homo sapiens, UniProt Q06187).
T1 construct: purchased Upstate 14-552
Put plainly: In vitro BTK kinase assay: BTK-POLYGAT-LS assay. The format is biochemical. To be noted: ATP 10 μM, read-out: IC50 (10uMATP). Summed up: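 Human BTK activity was measured with final 10 μM ATP and 100 nM polyGAT substrate in pH 7.5 Tris buffer with 10 mM MgCl2, DTT, Triton X-100 and casein.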

Sequence of BTK (phospho-BTK) in human whole blood (Q06187 whole entry): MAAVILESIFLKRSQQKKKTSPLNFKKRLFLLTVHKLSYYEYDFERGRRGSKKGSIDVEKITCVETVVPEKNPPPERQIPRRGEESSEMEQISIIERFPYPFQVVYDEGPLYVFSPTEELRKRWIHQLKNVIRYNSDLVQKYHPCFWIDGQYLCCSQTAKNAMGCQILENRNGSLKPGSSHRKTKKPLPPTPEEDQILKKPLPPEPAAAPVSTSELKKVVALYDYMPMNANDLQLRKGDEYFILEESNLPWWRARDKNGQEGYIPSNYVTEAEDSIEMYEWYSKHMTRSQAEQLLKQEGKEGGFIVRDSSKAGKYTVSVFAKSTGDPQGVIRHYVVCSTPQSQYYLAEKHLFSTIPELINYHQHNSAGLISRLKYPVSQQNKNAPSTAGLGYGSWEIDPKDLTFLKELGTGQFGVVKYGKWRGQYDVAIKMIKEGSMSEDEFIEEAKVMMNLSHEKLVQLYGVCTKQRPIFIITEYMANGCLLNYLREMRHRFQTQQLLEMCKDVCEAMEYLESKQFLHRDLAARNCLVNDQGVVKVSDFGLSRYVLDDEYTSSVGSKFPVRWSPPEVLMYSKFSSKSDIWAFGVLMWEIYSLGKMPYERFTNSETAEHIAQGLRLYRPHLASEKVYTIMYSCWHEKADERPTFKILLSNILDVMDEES
T1 sequence (Q06187 whole entry): as above

The IC50 is the midpoint of a concentration-inhibition curve. For the compound `CC(C)(C)OC1CN(C(=O)NC2CCCCc3cc(-c4cc(Nc5cc6n(n5)CCOC6)ncn4)ccc32)C1` (centres unmarked) [Example I-332, 3-tert-butoxy-N-[2-[6-(6,7-dihydro-4H-pyrazolo[5,1-c][1,4]oxazin-2-ylamino)pyrimidin-4-yl]-6,7,8,9-tetrahydro-5H-benzo[7]annulen-5-yl]azetidine-1-carboxamide], the IC50 is less than 500 nM in assay [1] and less than 10 nM on BTK enzyme.
For the compound `CC(C)OC1CN(C(=O)NC2CCN(CC(F)(F)F)Cc3cc(-c4ccnc(Nc5cnn(C)c5)n4)ccc32)C1` (centres unmarked) [Example I-187, 3-isopropoxy-N-(8-(2-((1-methyl-1H-pyrazol-4-yl)amino)pyrimidin-4-yl)-2-(2,2,2-trifluoroethyl)-2,3,4,5-tetrahydro-1H-benzo[c]azepin-5-yl)azetidine-1-carboxamide], the IC50 in assay [1] was less than 500 nM; at BTK enzyme, less than 10 nM.
With `CC(C)(C)C1CCN(C(=O)NC2CCCCc3cc(-c4ccnc(Nc5cnn(CCO)c5)n4)ccc32)C1` (centres unmarked) [Example I-185, 3-(tert-butyl)-N-(2-(2-((1-(2-hydroxyethyl)-1H-pyrazol-4-yl)amino)pyrimidin-4-yl)-6,7,8,9-tetrahydro-5H-benzo[7]annulen-5-yl)pyrrolidine-1-carboxamide], the IC50 was less than 500 nM in assay [1] and less than 10 nM on BTK enzyme.
On to `COCCn1cc(Nc2nccc(-c3ccc4c(c3)CCCC[C@H]4NC(=O)N3CC(OC(C)(C)C)C3)n2)cn1` [Example I-176, (R)-3-(tert-butoxy)-N-(2-(2-((1-(2-methoxyethyl)-1H-pyrazol-4-yl)amino)pyrimidin-4-yl)-6,7,8,9-tetrahydro-5H-benzo[7]annulen-5-yl)azetidine-1-carboxamide], for which the IC50 in assay [1] was less than 500 nM; on BTK enzyme it was less than 10 nM.
Consider `Cc1cc(-c2cc(Nc3cc4n(n3)CCN(C)C4)ncn2)ccc1CNC(=O)N1CCC(C(C)(C)C)C1` (centres unmarked) [Example I-275, 3-tert-butyl-N-[[2-methyl-4-[6-[(5-methyl-6,7-dihydro-4H-pyrazolo[1,5-a]pyrazin-2-yl)amino]pyrimidin-4-yl]phenyl]methyl]pyrrolidine-1-carboxamide], for which the IC50 was less than 500 nM in assay [1] and less than 10 nM on BTK enzyme.
Turning to `Cc1cc(-c2ccnc(Nc3cnn(C)c3)n2)ccc1CNC(=O)c1cc2c(s1)CCNC2` [Example I-2, N-(2-methyl-4-(2-((1-methyl-1H-pyrazol-4-yl)amino)pyrimidin-4-yl)benzyl)-4,5,6,7-tetrahydrothieno[3,2-c]pyridine-2-carboxamide], the IC50 was 500 to 1500 nM in assay [1] and less than 10 nM on BTK enzyme.
Taken in the same sequence, the figures for `CCn1cc(Nc2nccc(-c3ccc4c(c3)CCCCC4NC(=O)N3CCC(C(C)(C)C)C3)n2)cn1` (centres unmarked) [Example I-328] were less than 500 nM and less than 10 nM.
For the compound `Cn1cc(Nc2nccc(-c3ccc4c(c3)NCCC4NC(=O)c3cnc(C(C)(C)C)s3)n2)cn1` (centres unmarked) [Example I-99, 2-(tert-butyl)-N-(7-(2-((1-methyl-1H-pyrazol-4-yl)amino)pyrimidin-4-yl)-1,2,3,4-tetrahydroquinolin-4-yl)thiazole-5-carboxamide], the IC50 is 1500 to 10000 nM in assay [1] and less than 10 nM at BTK enzyme.
Taken in the same sequence, the figures for `COCCn1cc(Nc2nccc(-c3ccc(CNC(=O)N4CCC(C(C)(C)C)C4)c(C)c3)n2)cn1` (centres unmarked) [Example I-303, 3-tert-butyl-N-[[4-[2-[[1-(2-methoxyethyl)pyrazol-4-yl]amino]pyrimidin-4-yl]-2-methyl-phenyl]methyl]pyrrolidine-1-carboxamide] were less than 500 nM and less than 10 nM.
As to `Cc1cc(-c2ccnc(Nc3cnn(C)c3)n2)ccc1CNC(=O)N1CCC(C(C)(C)C)CC1` [Example I-20, 4-(tert-butyl)-N-(2-methyl-4-(2-((1-methyl-1H-pyrazol-4-yl)amino)pyrimidin-4-yl)benzyl)piperidine-1-carboxamide], the IC50 was 500 to 1500 nM in assay [1] and less than 10 nM at BTK enzyme.
As to `Cc1cc(-c2ccnc(Nc3cnn(C)c3)n2)ccc1CNC(=O)c1cc2c(s1)CCCO2` [Example I-15, N-(2-methyl-4-(2-((1-methyl-1H-pyrazol-4-yl)amino)pyrimidin-4-yl)benzyl)-6,7-dihydro-5H-thieno[3,2-b]pyran-2-carboxamide], the values for the IC50 (in assay [1]; on BTK enzyme) were less than 500 nM and less than 10 nM, respectively.
On to `CC(C)(C)OC1CN(C(=O)NC2CCCCc3cc(-c4ccnc(Nc5cnn(C6CCNCC6)c5)n4)ccc32)C1` (centres unmarked) [Example I-343, 3-tert-butoxy-N-[2-[2-[[1-(4-piperidyl)pyrazol-4-yl]amino]pyrimidin-4-yl]-6,7,8,9-tetrahydro-5H-benzo[7]annulen-5-yl]azetidine-1-carboxamide], for which the IC50 in assay [1] is less than 500 nM; on BTK enzyme, less than 10 nM.
The corresponding values for `Cc1cc(-c2cc(Nc3cn(C)cn3)ncn2)ccc1CNC(=O)c1cnc(C(C)(C)C)s1` [Example I-65, 2-(tert-butyl)-N-(2-methyl-4-(6-((1-methyl-1H-imidazol-4-yl)amino)pyrimidin-4-yl)benzyl)thiazole-5-carboxamide] are 500 to 1500 nM and less than 10 nM.
Taken in the same sequence, the figures for `CCn1cc(Nc2nccc(-c3ccc4c(c3)CCCCC4NC(=O)N3CC(OC(C)(C)C)C3)n2)cn1` (centres unmarked) [Example I-173, 3-(tert-butoxy)-N-(2-(2-((1-ethyl-1H-pyrazol-4-yl)amino)pyrimidin-4-yl)-6,7,8,9-tetrahydro-5H-benzo[7]annulen-5-yl)azetidine-1-carboxamide] were less than 500 nM and less than 10 nM.
Regarding `[2H]C([2H])([2H])n1cc(Nc2cc(-c3ccc(CNC(=O)N4CC(OC(C)C)C4)c(C)c3)ncn2)cn1` [Example I-243, 3-isopropoxy-N-(2-methyl-4-(6-((1-d3-methyl-1H-pyrazol-4-yl)amino)pyrimidin-4-yl)benzyl)azetidine-1-carboxamide], the IC50 was less than 500 nM in assay [1] and less than 10 nM on BTK enzyme.
Take `CC(C)C1CCN(C(=O)NC2CCCCc3cc(-c4ccnc(Nc5cnn([C@H]6CCOC6)c5)n4)ccc32)C1` (stereo partly drawn) [Example I-345, 3-isopropyl-N-[2-[2-[[1-[(3S)-tetrahydrofuran-3-yl]pyrazol-4-yl]amino]pyrimidin-4-yl]-6,7,8,9-tetrahydro-5H-benzo[7]annulen-5-yl]pyrrolidine-1-carboxamide]: the values for the IC50 (in assay [1]; at BTK enzyme) were less than 500 nM and less than 10 nM, respectively.
Regarding `CN1CC(n2cc(Nc3nccc(-c4ccc(CNC(=O)N5CC(OC(C)(C)C)C5)c(C(F)(F)F)c4)n3)cn2)C1` [Example I-206, 3-(tert-butoxy)-N-(4-(2-((1-(1-methylazetidin-3-yl)-1H-pyrazol-4-yl)amino)pyrimidin-4-yl)-2-(trifluoromethyl)benzyl)azetidine-1-carboxamide], the concentration for half-maximal inhibition (IC50) is less than 500 nM in assay [1] and less than 10 nM on BTK enzyme.
For the compound `CN1CC(n2cc(Nc3nccc(-c4ccc(CNC(=O)N5CCC(C(C)(C)C)C5)c(C(F)(F)F)c4)n3)cn2)C1` (centres unmarked) [Example I-311, 3-tert-butyl-N-[[4-[2-[[1-(1-methylazetidin-3-yl)pyrazol-4-yl]amino]pyrimidin-4-yl]-2-(trifluoromethyl)phenyl]methyl]pyrrolidine-1-carboxamide], the IC50 in assay [1] is less than 500 nM; at BTK enzyme it was less than 10 nM.
Taken in the same sequence, the figures for `COCCc1cc(-c2ccnc(Nc3cnn4c3CCC4)n2)ccc1CNC(=O)N1CC[C@@H](C(C)(C)C)C1` [Example I-325, (3S)-3-tert-butyl-N-[[4-[2-(5,6-dihydro-4H-pyrrolo[1,2-b]pyrazol-3-ylamino)pyrimidin-4-yl]-2-(2-methoxyethyl)phenyl]methyl]pyrrolidine-1-carboxamide] were less than 500 nM and less than 10 nM.
In the case of `CCn1cc(Nc2nccc(-c3ccc(CNC(=O)N4CC(OC(C)(C)C)C4)c(C)c3)n2)cn1` [Example I-216, 3-(tert-butoxy)-N-(4-(2-((1-ethyl-1H-pyrazol-4-yl)amino)pyrimidin-4-yl)-2-methylbenzyl)azetidine-1-carboxamide], the IC50 is less than 500 nM in assay [1] and less than 10 nM at BTK enzyme.
Taken in the same sequence, the figures for `COCCn1cc(Nc2nccc(-c3ccc4c(c3)CCCCC4NC(=O)N3CCC(C(C)(C)C)C3)n2)cn1` (centres unmarked) [Example I-186, 3-(tert-butyl)-N-(2-(2-((1-(2-methoxyethyl)-1H-pyrazol-4-yl)amino)pyrimidin-4-yl)-6,7,8,9-tetrahydro-5H-benzo[7]annulen-5-yl)pyrrolidine-1-carboxamide] were less than 500 nM and less than 10 nM.
Taken in the same sequence, the figures for `CC(C)C1CCN(C(=O)NC2CCCCc3cc(-c4ccnc(Nc5cnn(C6CCOCC6)c5)n4)ccc32)C1` (centres unmarked) [Example I-342, 3-isopropyl-N-[2-[2-[(1-tetrahydropyran-4-ylpyrazol-4-yl)amino]pyrimidin-4-yl]-6,7,8,9-tetrahydro-5H-benzo[7]annulen-5-yl]pyrrolidine-1-carboxamide] were less than 500 nM and less than 10 nM.
Regarding `Cc1cc(-c2cc(Nc3cc4n(n3)CCOC4)ncn2)ccc1CNC(=O)N1CC(OC(C)(C)C)C1` [Example I-287, 3-tert-butoxy-N-[[4-[6-(6,7-dihydro-4H-pyrazolo[5,1-c][1,4]oxazin-2-ylamino)pyrimidin-4-yl]-2-methyl-phenyl]methyl]azetidine-1-carboxamide], the figures for the IC50 (in assay [1]; at BTK enzyme) were less than 500 nM and less than 10 nM, respectively.
Taken in the same sequence, the figures for `CC(C)OC1CN(C(=O)NC2CCN(C3COC3)Cc3cc(-c4ccnc(Nc5cnn(C)c5)n4)ccc32)C1` (centres unmarked) [Example I-188, 3-isopropoxy-N-(8-(2-((1-methyl-1H-pyrazol-4-yl)amino)pyrimidin-4-yl)-2-(oxetan-3-yl)-2,3,4,5-tetrahydro-1H-benzo[c]azepin-5-yl)azetidine-1-carboxamide] were 500 to 1500 nM and less than 10 nM.
The corresponding values for `Cc1cc(-c2ccnc(Nc3cnn(C)c3)n2)ccc1CNC(=O)c1cnc(C(F)(F)F)s1` [Example I-4, N-(2-methyl-4-(2-((1-methyl-1H-pyrazol-4-yl)amino)pyrimidin-4-yl)benzyl)-2-(trifluoromethyl)thiazole-5-carboxamide] are 1500 to 10000 nM and less than 10 nM.

Source of the values: patent US10759783B2, “Biaryl inhibitors of Bruton'S tyrosine kinase” (BIOGEN MA INC., priority 2013, dated 2020).
